target: Histone deacetylase 1 (Homo sapiens, UniProt Q13547); experiment: HDAC Inhibition Assay; conditions: pH 7.4; 22 °C
Protocol: HDAC activity was measured using a continuous trypsin-coupled assay. For inhibitor characterization, measurements were done using 96-well assay plates. Enzyme was mixed with inhibitor at various concentrations and allowed to incubate for 15 minutes. […] Reactions were monitored in a fluorescence plate reader. […] The increase in fluorescence with time was used as the measure of the reaction rate. Inhibition constants Ki(app) were obtained using the program BatchKi.

Sequence of Histone deacetylase 1 (Q13547 whole entry): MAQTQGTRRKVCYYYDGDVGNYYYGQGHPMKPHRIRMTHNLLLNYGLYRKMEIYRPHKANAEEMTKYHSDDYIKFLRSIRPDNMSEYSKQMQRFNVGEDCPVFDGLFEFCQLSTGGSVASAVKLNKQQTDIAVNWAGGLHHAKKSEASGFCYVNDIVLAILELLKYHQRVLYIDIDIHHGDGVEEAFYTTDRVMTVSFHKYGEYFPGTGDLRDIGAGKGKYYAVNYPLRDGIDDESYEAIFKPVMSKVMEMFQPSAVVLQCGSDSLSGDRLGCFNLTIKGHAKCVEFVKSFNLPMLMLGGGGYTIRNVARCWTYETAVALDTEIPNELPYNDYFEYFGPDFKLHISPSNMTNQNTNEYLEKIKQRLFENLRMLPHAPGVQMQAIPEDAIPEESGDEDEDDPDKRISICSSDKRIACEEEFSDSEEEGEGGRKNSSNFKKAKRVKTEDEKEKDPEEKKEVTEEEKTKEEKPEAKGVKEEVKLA

| Structure (SMILES) | Ki |
| --- | --- |
| O=C(NO)c1ccc(OCCNC(=O)c2ccccc2)cc1 [N-hydroxy-4-[2-(phenylformamido)ethoxy]benzamide] | 43 nM |
| O=C(NO)c1ccc(OCCNC(=O)c2cc3ccccc3o2)cc1 [N-{2-[4-(hydroxycarbamoyl)phenoxy]ethyl}-1-benzofuran-2-carboxamide] | 4 nM |
| CN(C)Cc1c(C(=O)NCCOc2ccc(C(=O)O)cc2)oc2ccccc12 [4-[2-({3-[(dimethylamino)methyl]-1-benzofuran-2-yl}formamido)ethoxy]benzoic acid] | > 50000 nM |
| O=C(NO)c1ccc(OCCNC(=O)c2ccc3ccccc3c2)cc1 [N-{2-[4-(hydroxycarbamoyl)phenoxy]ethyl}naphthalene-2-carboxamide] | 6 nM |

From BindingDB's records for doi:10.1158/1535-7163.MCT-05-0442 (Celera Genomics, 2006)
